# Results from ChEMBL document CHEMBL1275254 (2010).
# Test system: Burkholderia pseudomallei
# Assay: Antimicrobial activity against Burkholderia pseudomallei 1026b after 24 hrs by broth microdilution method
# Type: functional
row,Compound,MIC
1,O=C(N[C@H](CO)[C@H](O)c1ccc([N+](=O)[O-])cc1)C(Cl)Cl [CHLORAMPHENICOL],8 µg/mL
2,CC[C@H]1OC(=O)[C@H](C)[C@@H](O[C@H]2C[C@@](C)(OC)[C@@H](O)[C@H](C)O2)[C@H](C)[C@@H](O[C@@H]2O[C@H](C)C[C@H](N(C)C)[C@H]2O)[C@](C)(OC)C[C@@H](C)C(=O)[C@H](C)[C@@H](O)[C@]1(C)O [CLARITHROMYCIN],128 µg/mL
3,CCC[C@@H]1C[C@@H](C(=O)N[C@@H]([C@H]2O[C@H](SC)[C@H](O)[C@@H](O)[C@H]2O)[C@H](C)Cl)N(C)C1 [CLINDAMYCIN],> 4100 µg/mL
4,NC[C@H]1O[C@H](O[C@H]2[C@H](O)[C@@H](O[C@H]3O[C@H](CO)[C@@H](O)[C@H](N)[C@H]3O)[C@H](N)C[C@@H]2N)[C@H](O)[C@@H](O)[C@@H]1O [KANAMYCIN],64 µg/mL
5,CC1COc2c(N3CCN(C)CC3)c(F)cc3c(=O)c(C(=O)O)cn1c23 (stereo not drawn) [OFLOXACIN],2 µg/mL
6,CN[C@@H]1[C@H](O)[C@H](NC)[C@H]2O[C@@]3(O)C(=O)C[C@@H](C)O[C@H]3O[C@@H]2[C@H]1O [SPECTINOMYCIN],2050 µg/mL
7,CN[C@@H]1[C@H](O[C@H]2[C@H](O[C@H]3[C@H](O)[C@@H](O)[C@H](N=C(N)N)[C@@H](O)[C@@H]3N=C(N)N)O[C@@H](C)[C@]2(O)C=O)O[C@@H](CO)[C@H](O)[C@H]1O [STREPTOMYCIN],> 2050 µg/mL
8,GENTAMICIN,512 µg/mL
